# Source: patent US20220411414A1, “INHIBITORS FOR THE B-CATENIN/B-CELL LYMPHOMA 9 (BCL9) PROTEIN-PROTEIN INTERACTION” (H. LEE MOFFITT CANCER CENTER AND RESEARCH INSTITUTE, INC., priority 2018, published 2022)
# What was measured:
# [1] = system: TOPFlash (three wild-type Tcf binding sites) luciferase reporter; test: Wnt-responsive TOPFlash luciferase reporter assay, β-catenin-activated HEK239; format: cell-based; conditions: 24 h treatment, read-out: TOPFlash IC50 ± SD β-catenin-activated HEK239
# Method: (§1) The TOPFlash luciferase reporter assay (in which the luciferase reporter has three wild-type Tcf4 binding sites) was performed with 4 and 5. Cell transfection and luciferase assay. FuGENE6 (E269A, Promega) 96 well plate format was used for the transfection of HEK293 and SW480 cells according to the manufacturer's instruction. HEK293 cells were co-transfected with 45 ng of TOPFlash or FOPFlash reporter gene, 135 ng pcDNA3.1-β-catenin, and 20 ng of pCMV-RL normalization reporter gene. SW480 cells were co-transfected with 60 ng of the TOPFlash or FOPFlash reporter gene and 40 ng of pCMV-RL normalization reporter. Cells were cultured in DMEM and 10% FBS at 37° C. for 24 h, and different concentrations of inhibitors or DMSO was added. After 24 h, the luciferase reporter activity was measured using the Dual-Glo system (E2940, Promega). Normalized luciferase activity in response to the treatment with 4 and 5 was compared with that obtained from the cells treated with DMSO. Experiments were performed in triplicate.
# [2] = system: mRNA expression of AXIN2, LEF1, cyclin D1 (Wnt target genes); test: Quantitative real-time PCR of Wnt target genes in SW480 cells; format: cell-based, human; conditions: SW480, 24 h, FIG. 2
# Text: House-keeper gene HERT was used as a reference. Each set of data is expressed as mean±standard deviation (n=3).
# Axin2, cyclin D1, c-myc, and LEF1 are the target genes of the canonical Wnt signaling pathway. Axin 2 is a specific target gene for the canonical Wnt signaling pathway (a. Yan D, et al., Elevated expression of axin2 and hnkd mRNA provides evidence that Wnt/beta-catenin signaling is activated in human colon tumors. Proc Natl Acad Sci USA. 2001 Dec. 18; 98(26):14973-8; b. Jho E H, et al., Wnt/beta-catenin/Tcf signaling induces the transcription of Axin2, a negative regulator of the signaling pathway. Mol Cell Biol. 2002 February; 22(4):1172-83; c. Leung J Y, et al., Activation of AXIN2 expression by beta-catenin-T cell factor. A feedback repressor pathway regulating Wnt signaling. J Biol Chem. 2002 Jun. 14; 277(24):21657-65; d. Lustig B, et al., Negative feedback loop of Wnt signaling through upregulation of conductin/axin2 in colorectal and liver tumors. Mol Cell Biol. 2002 February; 22(4):1184-93). Cyclin D1 (a. Tetsu O, et al., Nature. 1999 Apr. 1; 398(6726):422-6; b. Sansom O J, et al., Cyclin D1 is not an immediate target of beta-catenin following Apc loss in the intestine. J Biol Chem. 2005 Aug. 5; 280(31):28463-7; c. Shtutman M, et al., The cyclin D1 gene is a target of the beta-catenin/LEF-1 pathway. Proc Natl Acad Sci USA. 1999 May 11; 96(10):5522-7; d. Lin S Y, et al., Beta-catenin, a novel prognostic marker for breast cancer: its roles in cyclin D1 expression and cancer progression. Proc Natl Acad Sci USA. 2000 Apr. 11; 97(8):4262-6), c-myc (a. He T C, et al., Identification of c-MYC as a target of the APC pathway. Science. 1998 September 4; 281(5382):1509-12; b. Sansom O J, et al., Myc deletion rescues Ape deficiency in the small intestine. Nature. 2007 Apr. 5; 446(7136):676-9), and LEF1 (Hovanes K, et al., Beta-catenin-sensitive isoforms of lymphoid enhancer factor-1 are selectively expressed in colon cancer. Nat Genet. 2001 May; 28(1):53-7.; Filali M, et al., Wnt-3A/beta-catenin signaling induces transcription from the LEF-1 promoter. J Biol Chem. 2002 Sep. 6; 277(36):33398-410; Li T W, et al., Wnt activation and alternative promoter repression of LEF1 in colon cancer. Mol Cell Biol. 2006 July; 26(14):5284-99; Nguyen D X, et al., WNT/TCF signaling through LEF1 and HOXB9 mediates lung adenocarcinoma metastasis. Cell. 2009 Jul. […] Quantitative real-time PCR studies were also conducted to evaluate the inhibitory effects of 4 on the mRNA levels of Wnt target genes.
# Quantitative real time PCR analysis. SW480 cells at 1×10^6/mL were treated with different concentrations of 4 for 24 h. […] Quantitative PCR (qPCR) was performed using the iQ™ SYBR green supernix kit (170-8880, BIO-RAD) on an iQ^5 multicolor real-time PCR reaction system (BIO-RAD). […]
# [3] = system: TOPFlash (three wild-type Tcf binding sites) luciferase reporter; test: Wnt-responsive TOPFlash luciferase reporter assay, SW480; format: cell-based; conditions: Homo sapiens, 24 h treatment, read-out: TOPFlash IC50 ± SD SW480
# Method: as §1
smiles,measurement,setting,value
"Cl.Cl.O=C(Nc1ccc(O[C@@H]2CCNC2)c(-c2cccc(-c3nn[nH]n3)c2)c1)c1ccc(O[C@H]2CCNC2)c(-c2ccc(F)c(F)c2)c1 [Compound 4, 3′,4′-difluoro-6-(((S)-pyrrolidin-3-yl)oxy)-N-(6-(((R)-pyrrolidin-3-yl)oxy)-3′-(2H-tetrazol-5-yl)-[1,1′-biphenyl]-3-yl)-[1,1′-biphenyl]-3-carboxamide dihydrochloride]",IC50,[1],25 ± 4.1 µM
same,mRNA of house-keeper gene HERT,[2],did not inhibit
same,transcription of Axin2,[2],dose-dependently inhibit
same,transcription of LEF1,[2],dose-dependently inhibit
same,transcription of cyclin D1,[2],dose-dependently inhibit
same,IC50,[3],25 ± 2.7 µM
